Reference: ChEMBL document CHEMBL5724914, “Linking interpersonal differences in gut microbiota composition and drug biotransformation activity” (2024)

Columns and labels:
[1] = human gut metagenome, 24 h, 2 µM
[2] = (§1) The drug is tested on Z-022 corresponding to mouse gut metagenome with ENA study accession number: PRJEB37062 and ENA sample accession number: ERS12561821 for biotransformation under anaerobic condition. The drug concentrations were measured over 9 timepoints collected between 0 and 24 hours of incubation by liquid-chromatography-coupled mass spectrometry (LC–MS); conditions: 2 µM
[3] = as §1, with “Z-007” for “Z-022”, “rat” for “mouse”, “ERS12561807” for “ERS12561821”; conditions: 2 µM
[4] = human gut metagenome, 24 h, 2 µM; remark: listed apart in the source
[5] = as §1, with “WLS-350” for “Z-022”, “human” for “mouse”, “ERS12561789” for “ERS12561821”; conditions: 2 µM
[6] = human gut metagenome, 24 h, 2 µM; remark: listed apart in the source
[7] = as §1, with “WLS-006” for “Z-022”, “human” for “mouse”, “ERS12561741” for “ERS12561821”; conditions: 2 µM
[8] = human gut metagenome, 24 h, 2 µM; remark: listed apart in the source
[9] = as §1, with “Z-028” for “Z-022”, “ERS12561827” for “ERS12561821”; conditions: 2 µM
[10] = human gut metagenome, 24 h, 2 µM; remark: listed apart in the source
[11] = human gut metagenome, 24 h, 2 µM; remark: listed apart in the source
[12] = human gut metagenome, 24 h, 2 µM; remark: listed apart in the source
[13] = as §1, with “WLS-170” for “Z-022”, “human” for “mouse”, “ERS12561762” for “ERS12561821”; conditions: 2 µM
[14] = human gut metagenome, 24 h, 2 µM; remark: listed apart in the source
[15] = human gut metagenome, 24 h, 2 µM; remark: listed apart in the source
[16] = as §1, with “WLS-240” for “Z-022”, “human” for “mouse”, “ERS12561773” for “ERS12561821”; conditions: 2 µM
[17] = as §1, with “WLS-010” for “Z-022”, “human” for “mouse”, “ERS12561743” for “ERS12561821”; conditions: 2 µM
[18] = human gut metagenome, 24 h, 2 µM; remark: listed apart in the source
[19] = as §1, with “WLS-073” for “Z-022”, “human” for “mouse”, “ERS12561749” for “ERS12561821”; conditions: 2 µM
[20] = human gut metagenome, 24 h, 2 µM; remark: listed apart in the source
Also: call rule not given here.

Row | SMILES | Bacterial Biotransformation [1] | Bacterial Biotransformation [2] | Bacterial Biotransformation [3] | Bacterial Biotransformation [4] | Bacterial Biotransformation [5] | Bacterial Biotransformation [6] | Bacterial Biotransformation [7] | Bacterial Biotransformation [8] | Bacterial Biotransformation [9] | Bacterial Biotransformation [10] | Bacterial Biotransformation [11] | Bacterial Biotransformation [12] | Bacterial Biotransformation [13] | Bacterial Biotransformation [14] | Bacterial Biotransformation [15] | Bacterial Biotransformation [16] | Bacterial Biotransformation [17] | Bacterial Biotransformation [18] | Bacterial Biotransformation [19] | Bacterial Biotransformation [20]
1 | CCOC(=O)[C@H](CCc1ccccc1)N[C@@H](C)C(=O)N1[C@H](C(=O)O)C[C@H]2CCCC[C@@H]21 [TRANDOLAPRIL] | Compound metabolized | Compound NOT metabolized | Compound NOT metabolized | Compound NOT metabolized | Compound NOT metabolized | Compound metabolized | Compound metabolized | Compound NOT metabolized | Compound NOT metabolized | Compound metabolized | Compound NOT metabolized | Compound metabolized | Compound metabolized | Compound NOT metabolized | Compound metabolized | Compound metabolized | Compound metabolized | Compound metabolized | Compound metabolized | Compound NOT metabolized
2 | Cc1cc2c(cc1S(N)(=O)=O)S(=O)(=O)CCC2 | Compound NOT metabolized | Compound NOT metabolized | Compound NOT metabolized | Compound NOT metabolized | Compound NOT metabolized | Compound NOT metabolized | Compound NOT metabolized | Compound NOT metabolized | Compound NOT metabolized | Compound NOT metabolized | Compound NOT metabolized | Compound NOT metabolized | Compound NOT metabolized | Compound NOT metabolized | Compound NOT metabolized | Compound NOT metabolized | Compound NOT metabolized | Compound NOT metabolized | Compound NOT metabolized | Compound NOT metabolized
3 | O=C(Nc1ccccc1)OCC(CN1CCCCC1)OC(=O)Nc1ccccc1 (stereo not given) [DIPERODON] | Compound metabolized | Compound NOT metabolized | Compound NOT metabolized | Compound metabolized | Compound metabolized | Compound metabolized | Compound NOT metabolized | Compound NOT metabolized | Compound NOT metabolized | Compound metabolized | Compound NOT metabolized | Compound metabolized | Compound metabolized | Compound metabolized | Compound NOT metabolized | Compound metabolized | Compound metabolized | Compound metabolized | Compound NOT metabolized | Compound NOT metabolized
4 | CN1CCC(=C2c3ccccc3CCc3cccnc32)CC1.O=C(O)/C=C\C(=O)O.O=C(O)/C=C\C(=O)O [AZATADINE MALEATE] | Compound NOT metabolized | Compound NOT metabolized | Compound NOT metabolized | Compound NOT metabolized | Compound NOT metabolized | Compound NOT metabolized | Compound NOT metabolized | Compound NOT metabolized | Compound NOT metabolized | Compound NOT metabolized | Compound NOT metabolized | Compound NOT metabolized | Compound NOT metabolized | Compound NOT metabolized | Compound NOT metabolized | Compound NOT metabolized | Compound NOT metabolized | Compound NOT metabolized | Compound NOT metabolized | Compound NOT metabolized
5 | CCCC1O[C@@H]2C[C@H]3[C@@H]4CCC5=CC(=O)C=C[C@]5(C)[C@H]4[C@@H](O)C[C@]3(C)[C@]2(C(=O)CO)O1 (stereo not given in full) [BUDESONIDE] | Compound metabolized | Compound NOT metabolized | Compound NOT metabolized | Compound metabolized | Compound metabolized | Compound metabolized | Compound metabolized | Compound metabolized | Compound metabolized | Compound metabolized | Compound metabolized | Compound metabolized | Compound metabolized | Compound metabolized | Compound metabolized | Compound metabolized | Compound metabolized | Compound metabolized | Compound NOT metabolized | Compound metabolized
6 | N#Cc1ccc(C(c2ccc(C#N)cc2)n2cncn2)cc1 [LETROZOLE] | Compound NOT metabolized | Compound metabolized | Compound NOT metabolized | Compound NOT metabolized | Compound NOT metabolized | Compound NOT metabolized | Compound NOT metabolized | Compound NOT metabolized | Compound NOT metabolized | Compound NOT metabolized | Compound NOT metabolized | Compound NOT metabolized | Compound NOT metabolized | Compound NOT metabolized | Compound NOT metabolized | Compound NOT metabolized | Compound NOT metabolized | Compound NOT metabolized | Compound NOT metabolized | Compound NOT metabolized
7 | CC(C)c1nc(CN(C)C(=O)N[C@H](C(=O)N[C@@H](Cc2ccccc2)C[C@H](O)[C@H](Cc2ccccc2)NC(=O)OCc2cncs2)C(C)C)cs1 [RITONAVIR] | Compound metabolized | Compound NOT metabolized | Compound NOT metabolized | Compound metabolized | Compound NOT metabolized | Compound metabolized | Compound metabolized | Compound NOT metabolized | Compound metabolized | Compound metabolized | Compound NOT metabolized | Compound metabolized | Compound metabolized | Compound metabolized | Compound metabolized | Compound metabolized | Compound metabolized | Compound NOT metabolized | Compound metabolized | Compound NOT metabolized
